Where a name gives a salt, the structure may show the parent alone. Values belong to the compound of their own block, whether it stands above or below them.
How the values were obtained:
[1] = tested on: Rab2 wt, Rab7 wt, Cdc42 wt, Cdc42Q61L, H-Ras wt, H-RasG12V, Rac1 wt and Rac1Q61L; assay: Primary multiplex screen, BODIPY-FL-GTP binding on bead-bound GTPases (flow cytometry); conditions: for Primary Screen Hit: single dose 10 µM, change in BODIPY-GTP binding on any one GTPase; for primary screen outcome: 10 μM compound
Ras-related GTPases = assay: Confirmatory dose response assays on eight Ras-related GTPases; format: binding; conditions: for activity against the GTPases in confirmatory dose response assays (words): 10 nM to 100 µM
Method: (§1) For multiplex analyses of small GTPases, 4 μm diameter glutathione-beads (GSH-beads) distinguished by seven different intensities of red fluorescence were used according to our previously described protocols. The GST-GTPases included the following eight Ras-related small GTPases: Rab2 wt, Rab7 wt, Cdc42 wt, Cdc42Q61L activating mutant, H-Ras wt, H-RasG12V, Rac1 wt and Rac1Q61L activating mutant. Briefly, Prestwick Chemical Library® compounds were tested at 10 μM compound and 1% DMSO final concentrations. After a 10 min pre-incubation with the compound BODIPY- FL-GTP (100 nM final) was added to each well and bead associated fluorescence was measured. Sample analysis was conducted with a HyperCyt® high throughput flow cytometry platform. Flow cytometric light scatter at 488 nm and fluorescence emission at 530 +/− 20 nm (FL1) and 665 +/− 10 nm (FL8) were collected on a Cyan ADP flow cytometer (Beckman Coulter, Fullerton, CA). IDLQuery software was used to determine the compound activity in each well. Gating based on forward scatter (FS) and side scatter (SS) parameters was used to identify singlet bead populations. Gating based on FL8 emission distinguishes the beads coated with different proteins, and the median FL1 fluorescence per bead population were calculated. A compound was considered a “potential active” if the change in BODIPY-FL-GTP binding differed greater than 20% from that measured in DMSO treated controls.
(§2) Test compounds identified for follow-up after the primary screen were tested at dilutions ranging from 10 nM to 100 μM final concentration against individual GTPases in multiplex and single-plex assays. Compounds tested in dose response assays were serially diluted 1:3 a total of eight times from a starting concentration of 10 mM giving a 9-point dilution series in DMSO.
(§3) bConfirmatory screens entailed dose response assays conducted in a multiplex format with eight GTPases tested as for primary screen. BODIPY-GTP-binding activity was
(§4) measured in the presence of 10 nM to 100 µM of each of 11 test compounds (4 primary screen hits and 7 additional NSAIDs considered to have chemical similarity to GTPase
(§5) active compounds). GST-GFP coated beads served as a control to detect non-specific dissociation or denaturation caused by compound addition–none of the tested NSAIDs had
(§6) any effect on bead-GST-protein binding. EC50 values were determined using Prism to determine dose response fits as shown in Figure 1 of main text; fits have R2 > 0.9. Active
(§7) compounds based on same definition used as in primary screena. […]
(§8) ‡A well-characterized selective Cdc42 inhibitor served as a positive control.

[2] = tested on: Rac1 membrane localization; assay: Rac1 immunolocalization, OvCa433 cells; format: cell-based, human; conditions: for Rac1 membrane localization: 300 μM; for Rac PM Localiz.: immunofluorescence quantified using ImageJ
Cdc42 wt = Cdc42 wt (Homo sapiens, UniProt P60953); assay: Dose response, BODIPY-GTP binding; conditions: 10 nM to 100 µM
Cdc42 wt, sequence (P60953 whole entry): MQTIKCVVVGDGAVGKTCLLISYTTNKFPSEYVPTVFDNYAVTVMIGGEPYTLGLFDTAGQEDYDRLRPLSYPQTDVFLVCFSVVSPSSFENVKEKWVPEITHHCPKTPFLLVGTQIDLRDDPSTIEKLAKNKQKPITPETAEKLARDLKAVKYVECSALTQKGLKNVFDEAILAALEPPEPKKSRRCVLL

[3] = molecular target: Cdc42Q61L activating mutant (Homo sapiens, UniProt P60953, Q61L); assay: Dose response, BODIPY-GTP binding; conditions: 10 nM to 100 µM; read-out: Cdc42 (act) EC50
Cdc42Q61L activating mutant, sequence (P60953 whole entry Q61L): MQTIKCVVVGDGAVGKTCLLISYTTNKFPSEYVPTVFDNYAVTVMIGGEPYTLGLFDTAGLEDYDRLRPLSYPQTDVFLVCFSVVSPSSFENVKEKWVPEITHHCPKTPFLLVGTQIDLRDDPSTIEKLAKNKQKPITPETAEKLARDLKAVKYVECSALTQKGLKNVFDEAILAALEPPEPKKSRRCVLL

H-Ras wt = H-Ras wt (Homo sapiens, UniProt P01112); assay: Dose response, BODIPY-GTP binding; conditions: 10 nM to 100 µM
Method: as §1, §2, §3, §4, §5, §6, §7

H-RasG12V = H-RasG12V (Homo sapiens, UniProt P01112, G12V); assay: Dose response, BODIPY-GTP binding; conditions: 10 nM to 100 µM
Method: as §1, §2, §3, §4, §5, §6, §7, §8

Rac1 wt = Rac1 wt (Homo sapiens, UniProt P63000); assay: Dose response, BODIPY-GTP binding; conditions: 10 nM to 100 µM
[4] = IV dose of 30 mg; cited from earlier work
[5] = tested on: migration Rac1/Cdc42 dependent; assay: Migration IC50 (Table F); format: cell-based; conditions: ketorolac, calculated by GraphPad Prism5; read-out: IC50 migration Rac1/Cdc42 dependent (est)
Cdc42 [6] = molecular target: T1, Cdc42 (Mus musculus, UniProt P60766); assay: GLISA, Swiss 3T3 cells; format: cell-based; conditions: at 10 μM
T1 construct: endogenous in cells; host or cells: Swiss 3T3
T1 sequence (P60766 whole entry): as the sequence (P60953 whole entry) above

human COX-1 = molecular target: T2, human COX-1 (Homo sapiens, UniProt P23219); assay: Cyclooxygenase assay (CEREP), PGE2 formation; format: biochemical
T2 construct: purchased CEREP Laboratories (contract assay); host or cells: Sf-9
T2 sequence (P23219 24-599): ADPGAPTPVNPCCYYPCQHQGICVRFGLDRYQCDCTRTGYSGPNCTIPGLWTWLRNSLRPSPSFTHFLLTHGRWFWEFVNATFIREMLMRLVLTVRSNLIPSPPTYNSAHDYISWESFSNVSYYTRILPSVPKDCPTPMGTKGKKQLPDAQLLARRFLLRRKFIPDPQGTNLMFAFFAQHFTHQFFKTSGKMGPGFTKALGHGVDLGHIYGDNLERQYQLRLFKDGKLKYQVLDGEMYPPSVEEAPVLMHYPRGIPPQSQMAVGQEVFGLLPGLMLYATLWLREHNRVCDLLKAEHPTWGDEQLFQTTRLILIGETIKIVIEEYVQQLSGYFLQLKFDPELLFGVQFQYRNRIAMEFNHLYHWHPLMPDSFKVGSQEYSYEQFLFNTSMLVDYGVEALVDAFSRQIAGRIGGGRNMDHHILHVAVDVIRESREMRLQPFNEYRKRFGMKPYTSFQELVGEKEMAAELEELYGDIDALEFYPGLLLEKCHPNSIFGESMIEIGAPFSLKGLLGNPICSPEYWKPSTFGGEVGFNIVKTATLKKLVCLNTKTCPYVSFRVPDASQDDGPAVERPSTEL

human COX-2 = molecular target: T3, human COX-2 (Homo sapiens, UniProt P35354); assay: Cyclooxygenase assay (CEREP), PGE2 formation; format: biochemical; conditions: recombinant enzyme, 4 μM arachidonic acid
T3 construct: purchased CEREP Laboratories (contract assay); host or cells: Sf-9
T3 sequence (P35354 18-604): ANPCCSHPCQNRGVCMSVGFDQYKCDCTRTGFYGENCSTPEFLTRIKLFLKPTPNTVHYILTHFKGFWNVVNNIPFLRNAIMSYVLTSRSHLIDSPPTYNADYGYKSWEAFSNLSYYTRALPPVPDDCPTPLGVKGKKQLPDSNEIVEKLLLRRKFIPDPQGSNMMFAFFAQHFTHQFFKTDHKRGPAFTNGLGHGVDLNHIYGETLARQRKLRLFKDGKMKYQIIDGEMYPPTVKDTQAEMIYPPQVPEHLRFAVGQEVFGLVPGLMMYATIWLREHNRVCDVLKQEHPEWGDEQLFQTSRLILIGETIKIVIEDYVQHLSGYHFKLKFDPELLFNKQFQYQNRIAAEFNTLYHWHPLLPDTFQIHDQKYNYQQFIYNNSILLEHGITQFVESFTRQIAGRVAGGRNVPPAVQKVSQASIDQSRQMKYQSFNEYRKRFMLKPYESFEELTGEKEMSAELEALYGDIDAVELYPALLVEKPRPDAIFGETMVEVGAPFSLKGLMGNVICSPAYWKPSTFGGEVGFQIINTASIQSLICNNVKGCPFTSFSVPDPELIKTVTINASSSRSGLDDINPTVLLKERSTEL

Rac1 [7] = molecular target: T4, Rac1 (Mus musculus, UniProt P63001); assay: GLISA, Swiss 3T3 cells; format: cell-based; conditions: at 50 μM
T4 construct: endogenous in cells; host or cells: Swiss 3T3

Cdc42 [8] = molecular target: T5, Cdc42 (Homo sapiens, UniProt P60953); assay: G-trap flow cytometric effector binding assay, HeLa cells; format: cell-based; conditions: ketorolac enantiomers, EGF stimulation, read-out: EC50 against Cdc42
T5 construct: endogenous in cells; host or cells: HeLa
T5 sequence (P60953 whole entry): as the sequence (P60953 whole entry) above

Rac1 [9] = molecular target: T6, Rac1 (Homo sapiens, UniProt P63000); assay: as above; format: cell-based; conditions: ketorolac enantiomers
T6 construct: endogenous in cells; host or cells: HeLa

[10] = molecular target: Rac1Q61L activating mutant (Homo sapiens, UniProt P63000, Q61L); assay: Dose response, BODIPY-GTP binding; conditions: 10 nM to 100 µM; read-out: Rac1 (act) EC50
Rab7 = Rab7 (Homo sapiens, UniProt P51149); assay: Dose response, BODIPY-GTP binding; conditions: 10 nM to 100 µM
Rab7, sequence (P51149 whole entry, species assumed): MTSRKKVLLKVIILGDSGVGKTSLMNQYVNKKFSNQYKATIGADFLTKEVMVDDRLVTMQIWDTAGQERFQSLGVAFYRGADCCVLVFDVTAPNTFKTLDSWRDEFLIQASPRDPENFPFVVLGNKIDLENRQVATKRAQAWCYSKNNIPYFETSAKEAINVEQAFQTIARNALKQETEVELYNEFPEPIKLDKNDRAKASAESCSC

Rab2 = Rab2 (Homo sapiens, UniProt P61019); assay: Dose response, BODIPY-GTP binding; conditions: 10 nM to 100 µM
Rab2, sequence (P61019 whole entry, species assumed): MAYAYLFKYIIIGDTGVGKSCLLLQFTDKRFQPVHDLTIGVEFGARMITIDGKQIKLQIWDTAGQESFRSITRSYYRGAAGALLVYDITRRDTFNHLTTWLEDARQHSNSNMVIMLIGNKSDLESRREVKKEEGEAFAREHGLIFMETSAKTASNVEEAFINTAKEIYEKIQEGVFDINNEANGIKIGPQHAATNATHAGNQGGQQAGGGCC

[11] = tested on: Rac1 and Tiam1 protein levels; assay: Immunoblot of protein levels; format: cell-based, human
Method: Cells were stimulated with EGF at a final concentration of 1 nM for 10 min. Cells were lysed in a RIPA buffer consisting of 50 mM Tris pH 7.4, 1% NP-40, 0.25% sodium deoxycholate, 150 mM NaCl, 1 mM EDTA, 1 mM PMSF, 1 mM sodium vanadate, 10 mM sodium fluoride, 1 μg/mL each of pepstatin, aprotinin and leupeptin, 10 mM sodium pyrophosphate and 10 mM beta-glycerophosphate.
N = 3. See also Figure D in S1 File for time dependent loss of Rac1 membrane localization. N = 3 (B) Quantification of image intensity using Image J of 3 representative confocal images as shown in panel (A) containing 20–30 cells/field normalized to actin and untreated controls. (C) Western blot analyses of lysates from cells treated with 300 μM compound as indicated for 24 h as compared to untreated controls. […] Blots were probed for Tiam1 (200 kDa), GAPDH (37 kDa), Rac1 (20 kDa), as a loading control. (D) Quantification of image intensity using Image J. Each marker was normalized to GAPDH and untreated controls. N = 3.

[12] = tested on: Tiam1 membrane localization; assay: Tiam1 immunolocalization, OvCa433 cells; format: cell-based, human
Method: OvCa433 were plated on coverslips, treated with 300 μM NSAIDs for 1 h, fixed with 3% paraformaldehyde and immunostained for Rac1 or Tiam1. Actin was visualized with rhodamine phalloidin from Invitrogen (F432). Cells were imaged on a Zeiss LSM510 using a 63x objective and quantified using Image J.
Rac1 and Tiam1 antibodies were confirmed in our hands to recognize single protein species of the predicted molecular weight by immunoblot.

[13] = assays performed with 0.1% DMSO

SMILES: O=C(O)Cc1ccccc1Nc1c(Cl)cccc1Cl [Diclofenac sodium]
- Primary Screen Hit [1]: Inactive

SMILES: Cc1ccc(-c2cc(C(F)(F)F)nn2-c2ccc(S(N)(=O)=O)cc2)cc1 [Celecoxib]
- activity against the GTPases in confirmatory dose response assays (words) (Ras-related GTPases): inactive

SMILES: CC(C(=O)O)c1ccc(C(=O)c2ccccc2)s1 (centres unmarked) [Tiaprofenic acid]
- Primary Screen Hit [1]: Inactive

SMILES: CC(C)Cc1ccc(C(C)C(=O)O)cc1 (centres unmarked) [ibuprofen]
- Rac1 membrane localization [2]: did not alter

SMILES: O=C(O)c1cc(-c2ccc(F)cc2F)ccc1O [Diflunisal]
- Primary Screen Hit [1]: Inactive

SMILES: CN1C(C(=O)Nc2ccccn2)=C(O)c2ccccc2S1(=O)=O [Piroxicam]
- Primary Screen Hit [1]: Inactive

SMILES: CC(C)Cc1ccc([C@H](C)C(=O)O)cc1 [S-(+)-Ibuprofen, (S)-(+)-Ibuprofen]
- Rac PM Localiz. [2, 13]: 78%
- primary screen outcome [1]: positive
- Primary Screen Hit [1]: Active
- Cdc42 wt EC50 (Cdc42 wt): inactive
- EC50 [3]: 6.41 µM
- H-Ras wt EC50 (H-Ras wt): inactive
- H-Ras (act) EC50 (H-RasG12V): inactive

- Primary Screen Hit [1]: Inactive
SMILES: Cc1ccc(C(=O)c2ccc(CC(=O)O)n2C)cc1 [Tolmetin sodium salt dihydrate]

- primary screen outcome [1]: positive
- Primary Screen Hit [1]: Active
- Rac1 wt EC50 (Rac1 wt): Inactive
SMILES: CC(C(=O)O)c1cccc(Oc2ccccc2)c1 (centres unmarked) [Fenoprofen]
- Rac1 membrane localization [2]: did not alter

SMILES: Cc1onc(-c2ccccc2)c1-c1ccc(S(N)(=O)=O)cc1 [Valdecoxib]
- activity against the GTPases in confirmatory dose response assays (words) (Ras-related GTPases): inactive

- IC50 [5]: 34 µM
- effect on Cdc42 relative to R-ketorolac (Cdc42 [6]): approximately half the effect
SMILES: O=C(c1ccccc1)c1ccc2n1CCC2C(=O)O (racemic) [racemic ketorolac, ketorolac]
- Cmax [4]: 13.7 µM

SMILES: CC(C(=O)O)c1cccc(C(=O)c2ccccc2)c1 (centres unmarked) [Ketoprofen]
- Rac1 membrane localization [2]: did not alter
- Rac PM Localiz. [2, 13]: 45%

SMILES: Cc1c(Cl)cccc1Nc1ccccc1C(=O)O [Tolfenamic acid]
- Primary Screen Hit [1]: Inactive

- Primary Screen Hit [1]: Inactive
SMILES: CC(=O)Oc1ccccc1C(=O)Oc1ccccc1C(=O)O [Acetylsalicylsalicylic acid]

- Primary Screen Hit [1]: Inactive
SMILES: CC(=O)Nc1ccc(O)cc1 [Acetaminophen]

- eudismic ratio (EC50/EC50) (human COX-1; for cyclooxygenases, S-enantiomer relative to R-enantiomer): 100
- IC50 (human COX-1; recombinant enzyme, 4 μM arachidonic acid): < 0.01 µM
- IC50 (human COX-2): 0.085 µM
- inhibition of Rac1 (Rac1 [7]): non-inhibitory
- IC50 [5]: > 100 µM
- EC50 (Cdc42 [8]): > 10 µM
- inhibition of Cdc42 (Cdc42 [6]): non-inhibitory
- efficacy against Rac1 (Rac1 [9]): < 50%
SMILES: O=C(c1ccccc1)c1ccc2n1CC[C@@H]2C(=O)O [S-ketorolac]

- EC50 (Cdc42 wt): > 100 µM
- EC50 [3]: 48.6 µM
- EC50 [10]: 53 µM
- Rab7 EC50 (Rab7): inactive
- EC50 (Rac1 wt): 54 µM
- Rab2 EC50 (Rab2): inactive
- H-Ras wt EC50 (H-Ras wt): inactive
- H-Ras (act) EC50 (H-RasG12V): inactive
SMILES: CSc1ccc(/C=C2/C(C)=C(CC(=O)O)c3cc(F)ccc32)cc1 [Sulindac sulfide]
- activity against the GTPases in confirmatory dose response assays (words) (Ras-related GTPases): varying activity levels

SMILES: CC(=O)Oc1ccccc1C(=O)O [Acetylsalicylic acid]
- Rac1 membrane localization [2]: did not alter

- Primary Screen Hit [1]: Inactive
SMILES: CC1=C(CC(=O)O)c2cc(F)ccc2/C1=C\c1ccc([S+](C)[O-])cc1 (centres unmarked) [Sulindac]

SMILES: COc1ccc2cc([C@H](C)C(=O)O)ccc2c1 [S-naproxen]
- total Rac1 or Tiam1 protein levels ([11]; 300 μM, 24 h, immunoblot): did not alter
- Rac protein expression ([11]; immunoblot analysis): No change
- Rac1 membrane localization [2]: no effect
- Rac PM Localiz. [2]: 87%
- Tiam1 membrane localization ([12]; 300 μM): only slightly reduced
- Tiam1 GEF PM localiz. ([12]; immunofluorescence quantified using ImageJ): 65%
- Rab7 EC50 (Rab7): inactive
- times less active than the R-enantiomer (Ras-related GTPases): 10–20 times
- activity against the GTPases in confirmatory dose response assays (words) (Ras-related GTPases): varying activity levels
- Rab2 EC50 (Rab2): inactive
- H-Ras wt EC50 (H-Ras wt): inactive
- H-Ras (act) EC50 (H-RasG12V): inactive

- Primary Screen Hit [1]: Inactive
SMILES: CC(C(=O)O)c1ccc(C(=O)c2cccs2)cc1 (centres unmarked) [Suprofen]

Reference: paper PMC4641600, “Novel Activities of Select NSAID R-Enantiomers against Rac1 and Cdc42 GTPases” (PLoS ONE, 2015)
